{"source": "patent US9128108B2", "about": "“Mephedrone detection” (Randox Laboratories Limted, priority 2010, dated 2015)", "tested_on": "raised antibody (polyclonal IgG raised against Immunogen 1, Hapten 1-BSA)", "test": "Competitive ELISA with Hapten 1-HRP conjugate confirming binding of raised antibody", "parameters": "species or system sheep", "settings": "for binding of raised antibody (in words): competitive immunoassay at different antibody and conjugate concentrations; for Standard Absorb. / % Drop: standard 100 ng/ml; for Standard Absorb.: absorbance at 450 nm; for % Drop: drop of absorbance versus zero standard", "experimental": "The process of developing an immunoassay is well known to the person skilled in the art. Briefly, for a competitive immunoassay in which the target analyte is a non-immunogenic molecule such as a hapten, the following process is conducted: antibodies are produced by immunising an animal, preferably a mammalian animal, by repeated administration of an immunogen. The serum from the immunised animal is collected when the antibody titre is sufficiently high. A conjugate is added to a sample containing the target analyte and the raised antibodies, and the conjugate and analyte compete for binding to the antibodies. The process may comprise fixing said serum antibodies to a backing substrate such as a polystyrene solid support or a biochip. The antibodies can be polyclonal or monoclonal, monoclonal antibodies being obtainable from polyclonal sera using standard techniques. The signal emitted in the immunoassay is proportionate to the amount of conjugate bound to the antibodies which in turn is inversely proportionate to the analyte concentration. The signal can be detected or quantified by comparison with a calibrator.\nHapten 1 was conjugated to bovine serum albumin (BSA). The resulting immunogen (Immunogen 1) was administered to adult sheep on a monthly basis to provide target-specific polyclonal antisera. IgG was extracted from the antisera via caprylic acid/ammonium sulphate precipitation of immunoglobulin. Microtitre plates (Thermo Scientific, 468667) were coated with antibody (125 μl) in coating buffer (10 mM Tris pH 8.5) at 37° C. for 2 hours. The plates were then washed 4 times over 10 minutes with working strength TBST. 50 μl of sample/standard (Methcathinone, Sigma M-5037; Cathinone, Sigma C-3196 and Mephedrone, Randox LK973) was added to the appropriate wells in triplicate, followed by 75 μl of Hapten 1-HRP conjugate and incubated at 25° C. for 1 hour. The plates were then washed and 125 μl of TMB (Randox, 4380-15) was added to each well and left at room temperature for 20 mins in the dark. The reaction was stopped using 125 μl of 0.2M sulphuric acid. The absorbances were read at 450 nm with an ELISA microplate reader (BIO-TEK Instruments, Elx800) and the means calculated.\nCompetitive immunoassay results at different antibody and conjugate concentrations show the raised antibody binds to mephedrone, methcathinone and cathinone (Table 1).", "key": {"[1]": {"settings": "antibody 1.25 ug/ml, Hapten 1-HRP conjugate dilution 1/8K, zero absorb. 1.986"}, "[2]": {"settings": "antibody 1.25 ug/ml, Hapten 1-HRP conjugate dilution 1/8K"}, "[3]": {"settings": "antibody 5 ug/ml, Hapten 1-HRP conjugate dilution 1/4K, zero absorb. 1.961"}, "[4]": {"settings": "antibody 5 ug/ml, Hapten 1-HRP conjugate dilution 1/4K"}}}
{"smiles": "CNC(C)C(=O)c1ccc(C)cc1", "note": "(racemic) [Mephedrone, (RS)-2-methylamino-1-(4-methylphenyl)propan-1-one]", "values": [{"measurement": "binding of raised antibody (in words)", "result": "binds"}, {"measurement": "Standard Absorb.", "setting": "[1]", "result": 0.087}, {"measurement": "% Drop", "setting": "[2]", "result": 95.6, "unit": "%"}, {"measurement": "Standard Absorb.", "setting": "[3]", "result": 0.120}, {"measurement": "% Drop", "setting": "[4]", "result": 93.9, "unit": "%"}]}
{"smiles": "C[C@H](N)C(=O)c1ccccc1", "note": "[Cathinone]", "values": [{"measurement": "binding of raised antibody (in words)", "result": "binds"}, {"measurement": "Standard Absorb.", "setting": "[1]", "result": 1.515}, {"measurement": "% Drop", "setting": "[2]", "result": 23.7, "unit": "%"}, {"measurement": "Standard Absorb.", "setting": "[3]", "result": 1.600}, {"measurement": "% Drop", "setting": "[4]", "result": 18.4, "unit": "%"}]}
{"smiles": "CNC(C)C(=O)c1ccccc1", "note": "(stereo not drawn) [Methcathinone, 2-methylamino-1-phenylpropan-1-one]", "values": [{"measurement": "binding of raised antibody (in words)", "result": "binds"}, {"measurement": "Standard Absorb.", "setting": "[1]", "result": 0.169}, {"measurement": "% Drop", "setting": "[2]", "result": 91.5, "unit": "%"}, {"measurement": "Standard Absorb.", "setting": "[3]", "result": 0.205}, {"measurement": "% Drop", "setting": "[4]", "result": 89.5, "unit": "%"}]}
